Assay [1] addresses T1, human CB1 receptors (Homo sapiens, UniProt P21554).
T1 construct: (cDNA clone) CNR01L000
The experiment in a line: cAMP assay in HEK-293 cells, hCB1 agonist. It counts as cell-based. The following applies: inhibition of forskolin-stimulated cAMP, HEK-293 cells; for EC50: read-out: hCB1 EC50 (cAMP ag). The gist of the method:
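Agonist EC50 taken as concentration giving half inhibition of forskolin-driven cAMP, normalized to forskolin maximum, from sigmoidal curves. Whole HEK-293 cells stably expressing hCB1, in HEPES/BSA-containing HBSS, exposed 30 min at 37° C. to compound with forskolin (90 uM in 3× dilution); cAMP read after lysis.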

Assay [2] deals with T2, human CB2 receptors (Homo sapiens, UniProt P34972).
T2 construct: (cDNA clone) CNR0200000
As to the kind of experiment: cAMP assay in HEK-293 cells, hCB2 agonist. The assay is classed as cell-based. The following applies: inhibition of forskolin-stimulated cAMP, HEK-293 cells; read-out: hCB2 EC50 (cAMP ag). In a few lines:
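Stable hCB2 HEK-293 cells in HBSS/10 mM HEPES/0.1% fatty-acid-free BSA incubated 30 min at 37° C with compound; forskolin 90 uM in 3× compound mix.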

Assay [3] concerns the target T3, human CB2 (hCB2) (Homo sapiens, UniProt P34972).
T3 construct: (cDNA clone) CNR0200000
As to the kind of experiment: 35S GTPγS binding assay, hCB2 agonist. The assay is classed as biochemical. The following applies: GTPγS agonist, HEK-293 membranes; read-out: hCB2 EC50 (GTPyS ag). The gist of the method:
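Agonist-stimulated [35S]GTPγS (0.1 nM) binding measured by scintillation proximity after 90 min at room temperature. Reaction buffer: 50 mM HEPES pH 7.4, 100 mM NaCl, 5 mM MgCl2, 0.001% saponin plus 20 uM GDP. Membranes (5 μg) came from transfected cells expressing hCB2 cDNA (pcDNA3.1+ vector).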

T1 sequence (P21554 whole entry): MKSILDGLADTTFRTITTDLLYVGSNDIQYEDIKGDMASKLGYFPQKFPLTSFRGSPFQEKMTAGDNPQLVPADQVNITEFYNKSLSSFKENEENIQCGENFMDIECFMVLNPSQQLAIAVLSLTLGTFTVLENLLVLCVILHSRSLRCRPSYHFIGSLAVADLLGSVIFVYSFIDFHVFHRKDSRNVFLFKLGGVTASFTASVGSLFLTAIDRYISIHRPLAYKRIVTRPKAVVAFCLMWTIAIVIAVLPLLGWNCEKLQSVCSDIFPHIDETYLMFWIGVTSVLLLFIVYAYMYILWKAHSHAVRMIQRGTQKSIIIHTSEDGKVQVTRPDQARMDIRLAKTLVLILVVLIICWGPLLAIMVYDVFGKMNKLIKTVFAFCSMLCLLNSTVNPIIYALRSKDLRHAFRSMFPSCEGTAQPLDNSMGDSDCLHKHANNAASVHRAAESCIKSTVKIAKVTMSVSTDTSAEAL
T2 sequence (P34972 whole entry): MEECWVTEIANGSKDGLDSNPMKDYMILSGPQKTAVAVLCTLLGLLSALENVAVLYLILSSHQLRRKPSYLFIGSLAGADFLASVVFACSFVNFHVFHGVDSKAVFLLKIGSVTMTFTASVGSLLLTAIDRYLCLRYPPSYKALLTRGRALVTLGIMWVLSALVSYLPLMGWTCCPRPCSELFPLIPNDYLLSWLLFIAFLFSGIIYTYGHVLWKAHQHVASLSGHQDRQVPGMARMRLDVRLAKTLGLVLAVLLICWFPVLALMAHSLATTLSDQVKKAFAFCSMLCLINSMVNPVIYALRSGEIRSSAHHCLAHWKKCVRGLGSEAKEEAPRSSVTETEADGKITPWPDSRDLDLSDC
T3 sequence (P34972 whole entry): as above

Consider `COc1cc(F)ccc1C(=O)c1cc2cc(C)n(CCN3CCOCC3)c2s1` [Compound 133, (4-fluoro-2-methoxyphenyl)(5-methyl-6-(2-morpholinoethyl)-6H-thieno[2,3-b]pyrrol-2-yl)methanone], for which the results for the EC50 in assay [1], in assay [2] and in assay [3] were 100 to 1000 nM, under 100 nM and under 100 nM, respectively.
Regarding `Cc1cc2cc(C(=O)c3ccc(F)cc3F)sc2n1CCN1CCOCC1` [Compound 135, (2,4-difluorophenyl)(5-methyl-6-(2-morpholinoethyl)-6H-thieno[2,3-b]pyrrol-2-yl)methanone], the “hCB1 EC50 (cAMP ag, nM)” value in assay [1] is on record as “NS (NS means “Not Significant,” which means less than 30% agonist activity when compared to the positive control.)”. Also, the EC50 is under 100 nM in assay [2] and 100 to 1000 nM in assay [3].
Taken in the same sequence, the figures for `COc1ccc(C(=O)c2cc3cc(C)n(CCN4CCOCC4)c3s2)c(C)n1` [Compound 136, (6-methoxy-2-methylpyridin-3-yl)(5-methyl-6-(2-morpholinoethyl)-6H-thieno[2,3-b]pyrrol-2-yl)methanone] were “NS (NS means “Not Significant,” which means less than 30% agonist activity when compared to the positive control.)”, under 100 nM and under 100 nM.
For the compound `COc1ccc(C(O)(c2cc3cc(C)n(CCN4CCOCC4)c3s2)C(F)(F)F)cc1` (stereo not drawn) [Compound 138, 2,2,2-trifluoro-1-(4-methoxyphenyl)-1-(5-methyl-6-(2-morpholinoethyl)-6H-thieno[2,3-b]pyrrol-2-yl)ethanol], in assay [1], the “hCB1 EC50 (cAMP ag, nM)” value is listed as “NS (NS means “Not Significant,” which means less than 30% agonist activity when compared to the positive control.)”. The EC50 in assay [2] and in assay [3] was under 100 nM each time.
For `COc1ccc(C(=O)c2cc3cc(C)n(S(=O)(=O)CCN4CCOCC4)c3s2)cc1` [Compound 139, (4-methoxyphenyl)(5-methyl-6-(2-morpholinoethylsulfonyl)-6H-thieno[2,3-b]pyrrol-2-yl)methanone], the EC50 in assay [1] was 100 to 1000 nM; in assay [2], under 100 nM; in assay [3] it was under 100 nM.
Take `COc1ccc(C(c2cc3cc(C)n(CCN4CCOCC4)c3s2)C(F)(F)F)cc1` (stereo not drawn) [Compound 141, 4-(2-(5-methyl-2-(2,2,2-trifluoro-1-(4-methoxyphenyl)ethyl)-6H-thieno[2,3-b]pyrrol-6-yl)ethyl)morpholine]: the “hCB1 EC50 (cAMP ag, nM)” value in assay [1] is “NS (NS means “Not Significant,” which means less than 30% agonist activity when compared to the positive control.)”. For the same compound, the EC50 in assay [2] is under 100 nM; in assay [3] it was 100 to 1000 nM.
On to `COc1ccc(C(=O)c2cc3cc(C)n(CCN4CCC(OC)C4)c3s2)cn1` (stereo not drawn) [Compound 147, (6-methoxypyridin-3-yl)(6-(2-(3-methoxypyrrolidin-1-yl)ethyl)-5-methyl-6H-thieno[2,3-b]pyrrol-2-yl)methanone], for which, in assay [1], the “hCB1 EC50 (cAMP ag, nM)” value is “NS (NS means “Not Significant,” which means less than 30% agonist activity when compared to the positive control.)”. Further, the EC50 in assay [2] and in assay [3] was 100 to 1000 nM each time.
`COc1ccc(C(=O)c2cc3cc(C)n(CCN4CCCOCC4)c3s2)cn1` [Compound 158, (6-(2-(1,4-oxazepan-4-yl)ethyl)-5-methyl-6H-thieno[2,3-b]pyrrol-2-yl)(6-methoxypyridin-3-yl)methanone]: in assay [1], the “hCB1 EC50 (cAMP ag, nM)” value is recorded as “NS (NS means “Not Significant,” which means less than 30% agonist activity when compared to the positive control.)”. For the same compound, the EC50 in assay [2] is under 100 nM; in assay [3] it was 100 to 1000 nM.
The matching figures for `COc1ccc(C(=O)c2cc3cc(C)n(CCNC4CCOC4)c3s2)cn1` (stereo not drawn) [Compound 164, (6-methoxypyridin-3-yl)(5-methyl-6-(2-((tetrahydrofuran-3-yl)amino)ethyl)-6H-thieno[2,3-b]pyrrol-2-yl)methanone]: “NS (NS means “Not Significant,” which means less than 30% agonist activity when compared to the positive control.)”, under 100 nM and 1000 to 10000 nM.
The matching figures for `COc1ccc(C(=O)c2cc3cc(C)n(CCN4CCCC4)c3s2)cn1` [Compound 167, (6-methoxypyridin-3-yl)(5-methyl-6-(2-(pyrrolidin-1-yl)ethyl)-6H-thieno[2,3-b]pyrrol-2-yl)methanone]: “NS (NS means “Not Significant,” which means less than 30% agonist activity when compared to the positive control.)”, under 100 nM and 1000 to 10000 nM.

The values above are taken from patent publication US20130029970A1 (priority 2009, published 2013).
